Measured values as given in patent publication US20200262787A1, “OPTICAL COMPONENT FORMING COMPOSITION AND CURED PRODUCT THEREOF” (Mitsubishi Gas Chemical Company, Inc., priority 2016, published 2020).

Experiment: Organic solvent solubility test of compound
Assay type: physicochemical
Settings: compound in propylene glycol monomethyl ether acetate, 23° C., ultrasonic waves 30 minutes, visual
Procedure: The solubility of the compound in propylene glycol monomethyl ether acetate was measured as the solubility of the compound in an organic solvent.
A: 5.0% by mass Amount of dissolution
C: Amount of dissolution <3.0% by mass

| SMILES | Solubility in organic solvent |
| --- | --- |
| Oc1ccc([Te](Cl)(Cl)c2ccc(O)c(-c3ccccc3)c2)cc1-c1ccccc1 [Ph-BHPT, bis(3-phenyl-4-hydroxyphenyl)tellurium dichloride] | A (5.0% by mass Amount of dissolution) |
| CC1(OC(=O)COc2ccc([Te]c3ccc(OCC(=O)OC4(C)C5CC6CC(C5)CC4C6)cc3)cc2)C2CC3CC(C2)CC1C3 (centres unmarked) [TDP-ADBAC] | A (5.0% by mass Amount of dissolution) |
| CC1(OC(=O)COc2ccc([Te](Cl)(Cl)c3ccc(OCC(=O)OC4(C)C5CC6CC(C5)CC4C6)cc3OCC(=O)OC3(C)C4CC5CC(C4)CC3C5)cc2)C2CC3CC(C2)CC1C3 (centres unmarked) [CCHT-ADBAC] | A (5.0% by mass Amount of dissolution) |
| CC(C)(C)OC(=O)Oc1ccc([Te](Cl)(Cl)c2ccc(OC(=O)OC(C)(C)C)cc2)cc1 [BHPT-BOC, bis(tert-butoxycarboxyphenyl)tellurium dichloride] | A (5.0% by mass Amount of dissolution) |
| Oc1ccc([Te](Cl)(Cl)c2ccc(O)cc2O)cc1 [CCHT, (2,4-dihydroxyphenyl) (4-hydroxyphenyl)tellurium dichloride] | A (5.0% by mass Amount of dissolution) |
| Oc1ccc([Te]c2ccc(O)cc2)cc1 [TDP, 4,4′-telluriumdiphenol] | A (5.0% by mass Amount of dissolution) |
| CC1(OC(=O)COc2ccc([Te]c3ccc(OCC(=O)OC4(C)C5CC6CC(C5)CC4C6)c(-c4ccccc4)c3)cc2-c2ccccc2)C2CC3CC(C2)CC1C3 (centres unmarked) [Ph-TDP-ADBAC] | A (5.0% by mass Amount of dissolution) |
| CCOC(C)Oc1ccc([Te](Cl)(Cl)c2ccc(OC(C)OCC)c(-c3ccccc3)c2)cc1-c1ccccc1 (centres unmarked) [Ph-TDP-EE] | A (5.0% by mass Amount of dissolution) |
| CC1(OC(=O)COc2ccc([Te](Cl)(Cl)c3ccc(OCC(=O)OC4(C)C5CC6CC(C5)CC4C6)c(-c4ccccc4)c3)cc2-c2ccccc2)C2CC3CC(C2)CC1C3 (centres unmarked) [Ph-BHPT-ADBAC] | A (5.0% by mass Amount of dissolution) |
| Oc1ccc([Te]c2ccc(O)c(-c3ccccc3)c2)cc1-c1ccccc1 [Ph-TDP, bis(3-phenyl-4-hydroxyphenyl)tellurium] | A (5.0% by mass Amount of dissolution) |
| CC(C)(C)OC(=O)COc1ccc([Te]c2ccc(OCC(=O)OC(C)(C)C)c(-c3ccccc3)c2)cc1-c1ccccc1 [Ph-TDP-BOC] | A (5.0% by mass Amount of dissolution) |
| Oc1ccc([Te](Cl)(Cl)c2ccc(O)cc2)cc1 [BHPT, bis(4-hydroxyphenyl)tellurium dichloride] | A (5.0% by mass Amount of dissolution) |
| CCOC(C)Oc1ccc([Te](Cl)(Cl)c2ccc(OC(C)OCC)cc2)cc1 (centres unmarked) [BHPT-EE, bis(ethoxyethylphenyl)tellurium dichloride] | A (5.0% by mass Amount of dissolution) |
| CC1(OC(=O)COc2ccc([Te](Cl)(Cl)c3ccc(OCC(=O)OC4(C)C5CC6CC(C5)CC4C6)cc3)cc2)C2CC3CC(C2)CC1C3 (centres unmarked) [BHPT-ADBAC, bis(4-(2-methyl-2-adamantyloxycarbonylmethoxy)phenyl)tellurium dichloride] | A (5.0% by mass Amount of dissolution) |
